PubChem BioAssay AID2060883 (Molecular Pharmacology Branch, DTP, NCI, 2025)

System: 843782-103-R-J1-PDC complex spheroid viability
Experiment: Anticancer human tumor 843782-103-R-J1-PDC patient-derived lung adenocarcinoma cell line growth inhibition [RAS]
Details: for IC50: curve of first compound; for viability, T/C: stronger effect = lower value
Summary of the method: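 Agents were tested in combination matrices in half-log decrements from a top concentration at or near clinical Cmax (10 microM if undetermined). Targets were multi-cell spheroids of tumour lines plus HUVEC and MSC stromal cells.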
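Note: viability read after seven days of compound exposure.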

Work on `CCc1c2c(nc3ccc(O)cc13)-c1cc3c(c(=O)n1C2)COC(=O)[C@]3(O)CC` + C#Cc1c(F)ccc2cc(O)cc(-c3ncc4c(N5CC6CCC(C5)N6)nc(OCC56CCCN5CC(F)C6)nc4c3F)c12 yielded an IC50 (second compound 0.0316 µM) of 1.91 nM, an IC50 (second compound 0.1 µM) of 2 nM and an IC50 (second compound 0.316 µM) of 1.95 nM. The IC50 (second compound 1 µM) was 1.91 nM, the IC50 (second compound 3.16 µM) was 1.62 nM and the IC50 (second compound 10 µM) was under 0.949 nM. For the same compound, the viability, T/C (second compound 0.0316 µM, first compound 0.000949 µM) was 103%, the viability, T/C (second compound 0.0316 µM, first compound 0.003 µM) was 15.3% and the viability, T/C (second compound 0.0316 µM, first compound 0.00949 µM) was 8.79%. For the same compound, the viability, T/C (second compound 0.0316 µM, first compound 0.03 µM) was 2.87%, the viability, T/C (second compound 0.0316 µM, first compound 0.0949 µM) was 1.58% and the viability, T/C (second compound 0.0316 µM, first compound 0.3 µM) was 0.53%. It also gave a viability, T/C (second compound 0.1 µM, first compound 0.000949 µM) of 104%, a viability, T/C (second compound 0.1 µM, first compound 0.003 µM) of 19.6% and a viability, T/C (second compound 0.1 µM, first compound 0.00949 µM) of 8.39%. It also gave a viability, T/C (second compound 0.1 µM, first compound 0.03 µM) of 4.21%, a viability, T/C (second compound 0.1 µM, first compound 0.0949 µM) of 1.08% and a viability, T/C (second compound 0.1 µM, first compound 0.3 µM) of 0.68%. For the same compound, the viability, T/C (second compound 0.316 µM, first compound 0.000949 µM) was 96.8%, the viability, T/C (second compound 0.316 µM, first compound 0.003 µM) was 20.8% and the viability, T/C (second compound 0.316 µM, first compound 0.00949 µM) was 8.99%. For the same compound, the viability, T/C (second compound 0.316 µM, first compound 0.03 µM) was 3.62%, the viability, T/C (second compound 0.316 µM, first compound 0.0949 µM) was 1.15% and the viability, T/C (second compound 0.316 µM, first compound 0.3 µM) was 0.74%. It also gave a viability, T/C (second compound 1 µM, first compound 0.000949 µM) of 85.5%, a viability, T/C (second compound 1 µM, first compound 0.003 µM) of 26.8% and a viability, T/C (second compound 1 µM, first compound 0.00949 µM) of 7.99%. For the same compound, the viability, T/C (second compound 1 µM, first compound 0.03 µM) was 3.68%, the viability, T/C (second compound 1 µM, first compound 0.0949 µM) was 1.44% and the viability, T/C (second compound 1 µM, first compound 0.3 µM) was 0.87%. It also gave a viability, T/C (second compound 3.16 µM, first compound 0.000949 µM) of 73.4%, a viability, T/C (second compound 3.16 µM, first compound 0.003 µM) of 21.8% and a viability, T/C (second compound 3.16 µM, first compound 0.00949 µM) of 10.4%. The viability, T/C (second compound 3.16 µM, first compound 0.03 µM) was 4.24%, the viability, T/C (second compound 3.16 µM, first compound 0.0949 µM) was 1.56% and the viability, T/C (second compound 3.16 µM, first compound 0.3 µM) was 0.77%. It also gave a viability, T/C (second compound 10 µM, first compound 0.000949 µM) of 42.2%, a viability, T/C (second compound 10 µM, first compound 0.003 µM) of 12.1% and a viability, T/C (second compound 10 µM, first compound 0.00949 µM) of 9.81%. It also gave a viability, T/C (second compound 10 µM, first compound 0.03 µM) of 3.11%, a viability, T/C (second compound 10 µM, first compound 0.0949 µM) of 1.08% and a viability, T/C (second compound 10 µM, first compound 0.3 µM) of 0.39%.

`Nc1ccn(C2OC(CO)C(O)C2(F)F)c(=O)n1` (centres undefined) + CCn1c(-c2cccnc2C(C)OC)c2c3cc(ccc31)N1CCOC(CC(NC(=O)C(C(C)C)N(C)C(=O)C3(F)CCN(C(=O)C#CC(C)(C)N(C)C)CC3)C(=O)N3CCCC(N3)C(=O)OCC(C)(C)C2)C1 showed an IC50 (second compound 0.000949 µM) of 11 nM, an IC50 (second compound 0.003 µM) of 16.6 nM and an IC50 (second compound 0.00949 µM) of 13.1 nM. It also gave an IC50 (second compound 0.03 µM) of 16.7 nM, an IC50 (second compound 0.0949 µM) of 16.9 nM and an IC50 (second compound 0.3 µM) of 14.3 nM. The viability, T/C (second compound 0.000949 µM, first compound 0.00316 µM) was 70.1%, the viability, T/C (second compound 0.000949 µM, first compound 0.01 µM) was 52% and the viability, T/C (second compound 0.000949 µM, first compound 0.0316 µM) was 22.1%. It also gave a viability, T/C (second compound 0.000949 µM, first compound 0.1 µM) of 2.91%, a viability, T/C (second compound 0.000949 µM, first compound 0.316 µM) of 1.53% and a viability, T/C (second compound 0.000949 µM, first compound 1 µM) of 1.52%. For the same compound, the viability, T/C (second compound 0.003 µM, first compound 0.00316 µM) was 77.5%, the viability, T/C (second compound 0.003 µM, first compound 0.01 µM) was 72% and the viability, T/C (second compound 0.003 µM, first compound 0.0316 µM) was 21.7%. For the same compound, the viability, T/C (second compound 0.003 µM, first compound 0.1 µM) was 2.04%, the viability, T/C (second compound 0.003 µM, first compound 0.316 µM) was 1.96% and the viability, T/C (second compound 0.003 µM, first compound 1 µM) was 2.38%. The viability, T/C (second compound 0.00949 µM, first compound 0.00316 µM) was 73.3%, the viability, T/C (second compound 0.00949 µM, first compound 0.01 µM) was 59.4% and the viability, T/C (second compound 0.00949 µM, first compound 0.0316 µM) was 18.9%. For the same compound, the viability, T/C (second compound 0.00949 µM, first compound 0.1 µM) was 2.07%, the viability, T/C (second compound 0.00949 µM, first compound 0.316 µM) was 1.82% and the viability, T/C (second compound 0.00949 µM, first compound 1 µM) was 1.89%. The viability, T/C (second compound 0.03 µM, first compound 0.00316 µM) was 72.4%, the viability, T/C (second compound 0.03 µM, first compound 0.01 µM) was 74.5% and the viability, T/C (second compound 0.03 µM, first compound 0.0316 µM) was 21.1%. For the same compound, the viability, T/C (second compound 0.03 µM, first compound 0.1 µM) was 2.07%, the viability, T/C (second compound 0.03 µM, first compound 0.316 µM) was 1.99% and the viability, T/C (second compound 0.03 µM, first compound 1 µM) was 1.85%. For the same compound, the viability, T/C (second compound 0.0949 µM, first compound 0.00316 µM) was 85.6%, the viability, T/C (second compound 0.0949 µM, first compound 0.01 µM) was 69.9% and the viability, T/C (second compound 0.0949 µM, first compound 0.0316 µM) was 26.4%. For the same compound, the viability, T/C (second compound 0.0949 µM, first compound 0.1 µM) was 2.27%, the viability, T/C (second compound 0.0949 µM, first compound 0.316 µM) was 1.51% and the viability, T/C (second compound 0.0949 µM, first compound 1 µM) was 1.37%. It also gave a viability, T/C (second compound 0.3 µM, first compound 0.00316 µM) of 70.4%, a viability, T/C (second compound 0.3 µM, first compound 0.01 µM) of 62.7% and a viability, T/C (second compound 0.3 µM, first compound 0.0316 µM) of 21.8%. It also gave a viability, T/C (second compound 0.3 µM, first compound 0.1 µM) of 2.7%, a viability, T/C (second compound 0.3 µM, first compound 0.316 µM) of 1.81% and a viability, T/C (second compound 0.3 µM, first compound 1 µM) of 1.46%.
